# Measurements taken from PMC10138714, “Evaluation of Some Safety Parameters of Dual Histamine H3 and Sigma-2 Receptor Ligands with Anti-Obesity Potential” (International Journal of Molecular Sciences, 2023).
# Key:
# rats = assay: Heart rate and ECG intervals in rats; assay type: in vivo, male Wistar rats; details: 10 mg/kg i.p.
# Protocol: (§1) Blood pressure measurement and ECG were performed on male Wistar rats weighing 200–220 g (six months old). Locomotor activity and chimney tests were performed on adult male Albino Swiss (CD-1) mice weighing 18–22 g ([…]). The animals were obtained from an accredited animal house at the Faculty of Pharmacy, Jagiellonian University Medical College, Krakow, Poland. The experimental groups consisted of 6–8 animals. The animals were housed in constant temperature (22–24 °C) and humidity (40–60%) facilities, exposed to 12:12 h light/dark cycles, and were maintained on a standard pellet diet with tap water available ad libitum. Rats and mice were housed in pairs or 8 animals per home cage, respectively.
# In vivo electrocardiographic measurements were performed using an ASPEL ASCARD B5 apparatus, standard lead II, and a paper speed of 50 mm/s. The study was carried out after a single administration of the test compounds (10 mg/kg i.p.). […] The following parameters were then calculated and analyzed: duration of PQ, QT, QRS, RR intervals, and heart rate.
# mice [1] = assay: Locomotor activity in mice (activity cages, photobeam breaks); assay type: in vivo, male Albino Swiss (CD-1) mice; details: vs vehicle group
# Protocol: as §1
# Locomotor activity was individually recorded for each animal using specifically designed activity cages made of clear Perspex (40 cm × 40 cm × 31 cm, Activity Cage 7441, Ugo Basile, Italy). The cages were supplied with I.R. horizontal beam emitters connected to a counter that records the light-beam interruptions. The compounds suspensions were administered as i.p. injections 30 min before testing. Control animals received injections of vehicles. Each mouse was placed in a cage for a 30 min habituation period. After that time, the number of breaks in the photobeams was measured for 5 min, which is the same time as the observation period used in other tests.
# mice [2] = assay: Motor coordination in the chimney test; assay type: in vivo, male Albino Swiss (CD-1) mice; details: chimney test, 30 min after injection, n = 8
# Protocol: as §1
# The effect of tested compounds on motor impairment were quantified with the chimney test of Boissier et al. (1960). The mice were trained before the test, and only the animals able to get out of the chimney within 1 min were used at the experimental stage. The selected mice were placed in a 25 cm-long and 2.5 cm in diameter […] tube, which was reversed so that the mice could leave it only by climbing up backward until they reached the other end. The test was performed 30 min after injection (i.p.) of the examined compounds. Motor impairment was indicated by the inability of the animals to climb up backwards in the transparent tube within 60 s.
# normotensive rats = assay: Blood pressure in anesthetized normotensive rats (carotid artery cannulation); assay type: in vivo, male Wistar rats; details: single i.p. 10 mg/kg b.w., 30–60 min after administration
# Protocol: as §1
# Rats were anesthetized with thiopental (70 mg/kg) via i.p. injection. The left carotid artery was cannulated with polyethylene tubing filled with a heparin solution in saline to facilitate pressure measurements using a PowerLab Apparatus (ADInstruments, Sydney, Australia). After a 20 min stabilization period, the test compounds were administered i.p. at a dose of 10 mg/kg b.w. in a constant volume of 1 mL/kg b.w. Blood pressure was recorded immediately before administration and 5, 10, 15, 20, 30, 40, 50, and 60 min after the administration of the test compound [47].
# [3] = molecular target: T1, human ERG potassium channel (Kv11.1) (Homo sapiens, UniProt Q12809); assay: Whole-cell automated patch clamp (QPatch16X), inhibition of hERG currents; assay type: cell-based; details: for IC50: CHO cells stably expressing human ERG, whole-cell, mean of three experiments, read-out: Mean IC50 ± SEM, inhibition of hERG currents; for Inhibition of hERG compared with verapamil: relative to reference compound verapamil
# T1 construct: expressed in transfected cells
# Protocol: Electrophysiology experiments were performed on a QPatch16X automatic patch clamp platform (Sophion Bioscience, Ballerup, Denmark). Chinese hamster ovary (CHO) cells stably expressing the human ERG potassium channel (Kv11.1) were cultured using standard procedures. On the day of the experiment, cells were collected from the culture flask using TrypLE Express solution (Life Technologies, Thermo Fisher Scientific, Carlsbad, California, United States) and resuspended in EX-CELL ACF CHO serum-free medium (Merck KGaA, Sigma-Aldrich, Darmstadt, Germany), supplemented with 25 mM HEPES, 100 U/mL penicillin/streptomycin, and 0.04 mg/mL soybean trypsin inhibitor (all components from Sigma Aldrich).
# The cells were placed in the lidless microtube and located onboard the automated electrophysiology instrument, where they were automatically relocated to a built-in centrifuge.
# Cells were transferred to pipetting wells of single-use 16-channel planar patch chip plates (QPlate 16X, Sophion Bioscience, Ballerup, Denmark) and gigaseals were formed upon application of a combined suction/voltage protocol in a standard protocol supplied by Sophion Bioscience for CHO cells. Once the whole-cell mode was obtained, the cells were kept in a holding potential of -90 mV between the programmed stimulation protocols.
# Whole-cell potassium currents were measured in response to repeatedly executed voltage protocols constituted of the following steps: brief clamping to −50 mV (200 ms), subsequent depolarization to 20 mV for 4000 ms, and final repolarization to −50 mV when the outward tail current was measured for 4000 ms.
# The average current peak values determined in the presence of particular concentrations of the compound tested were subjected to a sigmoidal dose–response curve fitting, where the bottom plateau parameter was constrained to 0. The IC50 values were then calculated from the obtained sigmoidal dose–response curves. Data were analyzed using QPatch Assay Software (v5.0, Sophion Bioscience, Ballerup, Denmark) and represent the mean of three experiments carried out on distinct cells.
# [4] = tested on: rats fed a palatable diet; assay: Plasma AlaT, AspaT, gGT and ALP activity after repeated administration in rats fed a palatable diet; assay type: in vivo; details: 10 mg/kg b.w. i.p. repeated; for Plasma AlaT activity: vs vehicle control fed palatable feed; for Plasma ALP activity: vs vehicle group with palatable feed
# Protocol: Standard diet ( 8% fats, 67% carbohydrates, and 25% proteins) contained 100 g feed—280 kcal. Rats fed a palatable diet had access to a diet consisting of milk chocolate with nuts, cheese, salted peanuts, and 7% condensed milk and simultaneously to standard feed (Labofeed B, Morawski Manufacturer Feed, Kcynia, Poland) for 4 weeks. The feeding was not in any way forced, and rats decided themselves when, what, and how much to eat. A palatable diet contained 100 g of peanuts—612 kcal; 100 mL of condensed milk—131 kcal; 100 g of milk chocolate—529 kcal; and 100 g of cheese—325 kcal.
# The study evaluating the activities of alanine aminotransferase (AlaT), aspartate aminotransferase (AspaT), gamma-glutamyl transpeptidases (gGT), and alkaline phosphatase (ALP) was carried out after completing the excessive eating model experiments described in our previous work. Compounds were administered for twenty-eight days at a dose of 10 mg/kg b.w./day. On the 31st day of the experiment, 20 min after i.p. administration of heparin (5000 units/rat) and thiopental (70 mg/kg b.w.), blood was collected from the left carotid artery and then centrifuged at 600× g (15 min, 4 °C) in order to obtain the plasma. To determine the activities of AlaT, AapaT, gGT, and ALP in the plasma samples, a standard enzymatic spectrophotometric test (Biomaxima S.A., Lublin, Poland) was used.
# σ2R = molecular target: σ2R; design: method as in PMID 34908391; details: cited from earlier work
# σ1R = molecular target: σ1R; design: method as in PMID 34908391; details: cited from earlier work; for σ1/σ2: ratio of Ki values
# H3R = molecular target: H3R; design: method as in PMID 34908391; details: cited from earlier work; for H3/σ1 / H3/σ2: ratio of Ki values
# sigma-2 receptors = molecular target: sigma-2 receptors; design: method as in earlier work; details: cited from earlier work
# T1 sequence (Q12809 whole entry): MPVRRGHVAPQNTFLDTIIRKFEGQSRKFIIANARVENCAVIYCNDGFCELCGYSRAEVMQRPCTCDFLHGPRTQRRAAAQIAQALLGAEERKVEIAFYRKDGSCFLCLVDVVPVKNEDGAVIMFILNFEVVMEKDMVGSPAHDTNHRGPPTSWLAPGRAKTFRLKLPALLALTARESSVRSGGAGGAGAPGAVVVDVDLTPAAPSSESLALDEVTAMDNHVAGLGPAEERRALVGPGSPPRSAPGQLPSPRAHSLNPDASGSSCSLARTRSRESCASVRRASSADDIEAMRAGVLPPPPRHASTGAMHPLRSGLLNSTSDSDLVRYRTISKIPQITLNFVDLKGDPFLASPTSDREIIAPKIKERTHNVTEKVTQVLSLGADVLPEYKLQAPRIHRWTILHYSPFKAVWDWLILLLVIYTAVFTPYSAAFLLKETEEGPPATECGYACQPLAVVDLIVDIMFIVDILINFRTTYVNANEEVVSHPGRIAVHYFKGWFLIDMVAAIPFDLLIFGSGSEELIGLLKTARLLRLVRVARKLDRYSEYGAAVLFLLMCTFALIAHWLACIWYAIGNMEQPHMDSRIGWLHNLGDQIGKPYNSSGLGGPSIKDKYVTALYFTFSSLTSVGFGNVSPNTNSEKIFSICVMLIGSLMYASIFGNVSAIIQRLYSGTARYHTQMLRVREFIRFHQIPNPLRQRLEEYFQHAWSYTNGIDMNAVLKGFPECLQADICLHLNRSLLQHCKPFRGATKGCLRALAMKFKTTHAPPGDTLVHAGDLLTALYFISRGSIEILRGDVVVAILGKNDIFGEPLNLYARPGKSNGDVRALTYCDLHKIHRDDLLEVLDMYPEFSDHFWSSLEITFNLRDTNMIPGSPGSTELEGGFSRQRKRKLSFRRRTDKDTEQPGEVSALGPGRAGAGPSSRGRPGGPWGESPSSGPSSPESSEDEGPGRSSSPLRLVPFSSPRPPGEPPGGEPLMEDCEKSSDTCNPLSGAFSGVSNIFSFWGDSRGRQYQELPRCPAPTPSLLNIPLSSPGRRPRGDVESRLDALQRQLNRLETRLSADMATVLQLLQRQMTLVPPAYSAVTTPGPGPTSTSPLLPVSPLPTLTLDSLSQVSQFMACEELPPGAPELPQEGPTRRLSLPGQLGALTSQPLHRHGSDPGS
SMILES,Heart rate (rats; time 0 min) [beats/min],PQ (rats; time 0 min) [ms],QRS (rats; time 0 min) [ms],QT (rats; time 0 min) [ms],Heart rate (rats; time 15 min) [beats/min],PQ (rats; time 15 min) [ms],QRS (rats; time 15 min) [ms],QT (rats; time 15 min) [ms],Heart rate (rats; time 30 min) [beats/min],PQ (rats; time 30 min) [ms],QRS (rats; time 30 min) [ms],QT (rats; time 30 min) [ms],Heart rate (rats; time 45 min) [beats/min],PQ (rats; time 45 min) [ms],QRS (rats; time 45 min) [ms],QT (rats; time 45 min) [ms],Heart rate (rats; time 60 min) [beats/min],PQ (rats; time 60 min) [ms],QRS (rats; time 60 min) [ms],QT (rats; time 60 min) [ms],other results
CC(=O)c1ccc(OCCCCCCCCN2CCN(c3ccncc3)CC2)cc1 [KSK-73],370.0 ± 23.9,56.3 ± 2.2,22.7 ± 5.4,61.3 ± 2.2,375.5 ± 23.9,51.3 ± 2.2,22.7 ± 5.4,63.8 ± 4.1,377.1 ± 27.3,51.3 ± 2.2,22.7 ± 5.4,60.0 ± 7.1,395.8 ± 33.3,52.5 ± 2.5,20.0 ± 0.0,58.8 ± 2.2,377.0 ± 26.4,53.8 ± 2.2,20.0 ± 0.0,63.8 ± 6.5,Locomotor activity (mice [1]; single i.p. 30 mg/kg b.w.): significant decrease; % of Mice Impaired (mice [2]; 10 mg/kg i.p.): 12.5%; % of Mice Impaired (mice [2]; 20 mg/kg i.p.): 0%; % of Mice Impaired (mice [2]; 30 mg/kg i.p.): 0%; Decrease of diastolic blood pressure (normotensive rats): 10–14 mmHg; Decrease of systolic blood pressure (normotensive rats): approx. 12 mmHg; IC50 [3]: 2070 ± 402 nM; Inhibition of hERG compared with verapamil [3]: four times weaker; Plasma gGT activity ([4]; vs palatable feed-fed control group): statistically lower gGT activity; Plasma AlaT activity [4]: lower; Plasma ALP activity [4]: lower plasma ALP activity; Ki (σ2R): 59.7 nM; Ki (σ1R): 408 nM; σ1/σ2 (σ1R): 6.84; Ki (H3R): 40.5 nM; H3/σ1 (H3R): 0.1; H3/σ2 (H3R): 0.68
CCC(=O)c1ccc(OCCCCCCCCN2CCN(c3ccncc3)CC2)cc1 [KSK-74],381.8 ± 19.9,56.3 ± 4.1,20.0 ± 0.0,62.5 ± 4.3,356.3 ± 18.9,53.8 ± 4.1,20.0 ± 0.0,60.0 ± 5.0,355.3 ± 32.2,56.3 ± 2.2,20.0 ± 0.0,61.3 ± 6.5,364.6 ± 18.1,57.5 ± 2.5,20.0 ± 0.0,65.0 ± 6.1,370.8 ± 23.9,55.0 ± 5.0,20.0 ± 0.0,62.5 ± 8.3,"Locomotor activity (mice [1]; single i.p. 10 mg/kg b.w., 30 min before test): significantly increased; Locomotor activity (mice [1]; single i.p. 30 mg/kg b.w.): No significant changes; % of Mice Impaired (mice [2]; 10 mg/kg i.p.): 0%; % of Mice Impaired (mice [2]; 20 mg/kg i.p.): 12.5%; % of Mice Impaired (mice [2]; 30 mg/kg i.p.): 12.5%; Decrease of diastolic blood pressure (normotensive rats): 10–13 mmHg; Decrease of systolic blood pressure (normotensive rats): approx. 12 mmHg; IC50 [3]: 3400 ± 289 nM; Inhibition of hERG compared with verapamil [3]: almost seven times weaker; Plasma AlaT activity [4]: lower; Plasma ALP activity [4]: lower plasma ALP activity; Ki (σ2R): 65.9 nM; Ki (σ1R): 274 nM; σ1/σ2 (σ1R): 4.16; Ki (H3R): 38.9 nM; H3/σ1 (H3R): 0.14; H3/σ2 (H3R): 0.59"
Clc1ccc(CCCOCCCN2CCCCC2)cc1 [Pitolisant],–,–,–,–,–,–,–,–,–,–,–,–,–,–,–,–,–,–,–,–,Ki (sigma-2 receptors): 6.5 nM
